Results taken from patent publication US20020132225A1, “Compositions and methods for prolonging survival of chilled platelets” (priority 2000, published 2002).

Experiments:
[1] = tested on: stimulated THP-1 cells; test: In vitro phagocytic assay: phagocytosis of chilled platelets by THP-1 cells (FACS); type: cell-based, human; conditions: for inhibition of phagocytosis of platelets by phagocytic cells: up to 200 mM
Excerpt: As a first step toward evaluation of this strategy, we have developed an in vitro phagocytic assay to study the interaction between chilled platelets and mononuclear phagocytes. […] These measurements can be made with a fluorescence-activated cell sorter (FACS). […] None of these sugars had any effect on platelet aggregation induced by thrombin or by ristocetin. The latter result is particularly important, because it reflects platelet hemostatic function mediated by GPIb interaction with von Willebrand factor.
In these experiments (FIG. 11, 12, and 13) platelets were loaded with fluorescent dye CM-Orange, then incubated for 1 h at 22° C. (control), 4° C. (chilled) or exposed to UV (UV). Phagocytosis was quantified by measuring the incorporation of CM-orange-fluorescence (CM-Orange labeled platelets) into monocyte-sized cells. Bound versus ingested platelets were separated by labeling the cells after the phagocytic period with FITC-labeled anti-integrin-β3 (CD 61) antibodies, e.g., bound platelets will be FITC positive, ingested platelets will be negative. The uptake of control versus chilled platelets was compared. Chilled platelets are phagocytized because they fail to label with FITC-conjugated anti-β3 antibodies (CM-Orange positive), whereas control platelets are poorly ingested although some platelets are bound to the monocyte surface. From this experiment, the ratio of 22° C. to 4° C. ingested platelets (CM-Orange positive) can be calculated. […] These findings indicate that the cold platelet clearance differs from UV-induced clearance.

[2] = tested on: OG-permeant platelets; test: Actin filament barbed end exposure in chilled OG-permeabilized platelets; type: cell-based, human; conditions: OG-permeant platelets cooled
Description: We studied the biochemical and structural basis for the cold-induced shape transformation in human platelets and found it to require net actin assembly. To understand the signals involved in this process, we applied a permeabilization scheme to the cooling process that we have used to dissect PAR-1 mediated actin assembly. In this approach, platelets are first permeabilized with 0.25% octylglucoside (OG), then chilled to 4° C. for 5 min and rewarmed to 37° C. Resting platelets remained discoid at 37° C. after permeabilization with OG but changed shape when chilled. Chilled OG-permeant platelets have blebs on their surfaces and elaborate filopodial processes. […] Rewarming is required to assay filament end numbers, because we discovered that OG-treated platelets reseal in the cold, but become permeable again when rewarmed. We assayed the number of actin filament barbed ends biochemically by monitoring the acceleration of pyrene-actin polymerization rates fluorometrically in the presence and absence of CB (Hartwig, J. et al., Cell 82:643-653).

## CC(=O)N[C@H]1C(O)O[C@H](CO)[C@@H](O)[C@@H]1O (stereo partly drawn) [N-acetyl-D-glucosamine]
[1]
  inhibition of phagocytosis of platelets by phagocytic cells: not

## Nc1nc2c(ncn2[C@@H]2O[C@H](COP(=O)(O)OP(O)(O)=S)[C@@H](O)[C@H]2O)c(=O)[nH]1 [GDPβS]
[2]
  effect on barbed ends exposed upon cooling: no effect

## O=C[C@H](O)[C@@H](O)[C@@H](O)[C@H](O)CO [D-galactose]
[1]
  inhibition of phagocytosis of platelets by phagocytic cells: not

## N17cdc42: negative dominant form of cdc42 GTPase
[2]
  effect on barbed ends exposed upon cooling: failed to inhibit

## O=C[C@H](O)[C@@H](O)[C@H](O)[C@H](O)CO [D-glucose]
[1]
  inhibition of phagocytosis of platelets by phagocytic cells: not

## COC1OC(CO)C(O)C(O)C1O [α-methyl-D-glycoside]
[1]; FIG. 11-13
  inhibition of CM-Orange pellet phagocytosis by stimulated THP-1 cells: concentration dependent inhibition

## Nc1nc2c(ncn2[C@@H]2O[C@H](COP(=O)(O)OP(=O)(O)OP(O)(O)=S)[C@@H](O)[C@H]2O)c(=O)[nH]1 [GTPγS]
[2]
  effect on barbed ends exposed upon cooling: no effect
